Test results reported in PubChem BioAssay AID1963983 (Molecular Pharmacology Branch, DTP, NCI, 2024).
Several values for one entry are separate records, joined by “and”; a condition that tells them apart may be missing. Equal entries are not always repeated.

Test system: 186277-243-T-J2-PDC multi-cell spheroid viability
Experiment: Anticancer human tumor 186277-243-T-J2-PDC patient-derived colon adenocarcinoma cell line growth inhibition [PI3K]
Conditions: for viability, T/C: stronger effect = lower value
How it was run: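 Multi-cell spheroids combine tumor cells with HUVEC and human MSCs, treated with targeted agents alone or with inavolisib, alpelisib, duvelisib or copanlisib. Concentrations fall in half-log steps from at or near clinical Cmax, or from 10 microM where Cmax is unknown; viability read-out.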

[1] = curve of first compound, second compound 0.0316 µM
[2] = curve of first compound, second compound 0.1 µM
[3] = curve of first compound, second compound 0.316 µM
[4] = curve of first compound, second compound 1 µM
[5] = curve of first compound, second compound 3.16 µM
[6] = curve of first compound, second compound 10 µM
[7] = second compound 0.0316 µM, first compound 0.0316 µM
[8] = second compound 0.0316 µM, first compound 0.1 µM
[9] = second compound 0.0316 µM, first compound 0.316 µM
[10] = second compound 0.0316 µM, first compound 1 µM
[11] = second compound 0.1 µM, first compound 0.0316 µM
[12] = second compound 0.1 µM, first compound 0.1 µM
[13] = second compound 0.1 µM, first compound 0.316 µM
[14] = second compound 0.1 µM, first compound 1 µM
[15] = second compound 0.316 µM, first compound 0.0316 µM
[16] = second compound 0.316 µM, first compound 0.1 µM
[17] = second compound 0.316 µM, first compound 0.316 µM
[18] = second compound 0.316 µM, first compound 1 µM
[19] = second compound 1 µM, first compound 0.0316 µM
[20] = second compound 1 µM, first compound 0.1 µM
[21] = second compound 1 µM, first compound 0.316 µM
[22] = second compound 1 µM, first compound 1 µM
[23] = second compound 3.16 µM, first compound 0.0316 µM
[24] = second compound 3.16 µM, first compound 0.1 µM
[25] = second compound 3.16 µM, first compound 0.316 µM
[26] = second compound 3.16 µM, first compound 1 µM
[27] = second compound 10 µM, first compound 0.0316 µM
[28] = second compound 10 µM, first compound 0.1 µM
[29] = second compound 10 µM, first compound 0.316 µM
[30] = second compound 10 µM, first compound 1 µM
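Also: spheroids exposed to compounds for seven days before viability reading.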
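For viability, T/C in this document: 100% = DMSO vehicle control viability.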

In the case of CCCS(=O)(=O)Nc1ccc(F)c(C(=O)c2c[nH]c3ncc(-c4ccc(Cl)cc4)cc23)c1F + CC(Nc1ncnc2nc[nH]c12)c1cc2cccc(Cl)c2c(=O)n1-c1ccccc1, the IC50 [1] is reported as 5.69 µM, the IC50 [2] is reported as 5.06 µM and the IC50 [3] is reported as 4.97 µM. For the same compound, the IC50 [4] was 5.21 µM, the IC50 [5] was 5.3 µM and the IC50 [6] was 5.48 µM. It also gave a viability, T/C [7] of 85.8%, a viability, T/C [8] of 96.6% and a viability, T/C [9] of 105%. The viability, T/C [10] was 85.6%, the viability, T/C (second compound 0.0316 µM, first compound 3.16 µM) was 96.5% and the viability, T/C (second compound 0.0316 µM, first compound 10 µM) was 7.89%. It also gave a viability, T/C [11] of 97.5%, a viability, T/C [12] of 103% and a viability, T/C [13] of 93.2%. It also gave a viability, T/C [14] of 77.8%, a viability, T/C (second compound 0.1 µM, first compound 3.16 µM) of 83.7% and a viability, T/C (second compound 0.1 µM, first compound 10 µM) of 7.36%. The viability, T/C [15] was 97.3%, the viability, T/C [16] was 109% and the viability, T/C [17] was 87%. For the same compound, the viability, T/C [18] was 94.5%, the viability, T/C (second compound 0.316 µM, first compound 3.16 µM) was 76.5% and the viability, T/C (second compound 0.316 µM, first compound 10 µM) was 10.1%. It also gave a viability, T/C [19] of 86.7%, a viability, T/C [20] of 98.1% and a viability, T/C [21] of 95.5%. It also gave a viability, T/C [22] of 94%, a viability, T/C (second compound 1 µM, first compound 3.16 µM) of 82.3% and a viability, T/C (second compound 1 µM, first compound 10 µM) of 7.72%. The viability, T/C [23] was 113%, the viability, T/C [24] was 94.6% and the viability, T/C [25] was 90.6%. It also gave a viability, T/C [26] of 91%, a viability, T/C (second compound 3.16 µM, first compound 3.16 µM) of 84.8% and a viability, T/C (second compound 3.16 µM, first compound 10 µM) of 9.36%. For the same compound, the viability, T/C [27] was 108%, the viability, T/C [28] was 104% and the viability, T/C [29] was 106%. The viability, T/C [30] was 105%, the viability, T/C (second compound 10 µM, first compound 3.16 µM) was 87.6% and the viability, T/C (second compound 10 µM, first compound 10 µM) was 8.89%.

In the case of CC(Cn1ccc(-c2ccc(C#N)c(Cl)c2)n1)NC(=O)c1cc(C(C)O)[nH]n1 (stereo unspecified), the viability, T/C (compound 0.0316 µM) is reported as 95.5% [middle of 4 runs], the viability, T/C (compound 0.1 µM) is reported as 99% [middle of 4 runs] and the viability, T/C (compound 0.316 µM) is reported as 101% [middle of 4 runs]. For the same compound, the viability, T/C (compound 1 µM) was 102% (2×) and 82% and 108%, the viability, T/C (compound 3.16 µM) was 96.6% [middle of 4 runs] and the viability, T/C (compound 10 µM) was 97.3% [middle of 4 runs]. It also gave an IC50 (curve of compound) greater than 10 µM.

CCN1CCN(Cc2ccc(Nc3ncc(F)c(-c4cc(F)c5nc(C)n(C(C)C)c5c4)n3)nc2)CC1 + Cc1nc(NC(=O)N2CCCC2C(N)=O)sc1-c1ccnc(C(C)(C)C(F)(F)F)c1 gave an IC50 [1] greater than 1 µM, an IC50 [2] greater than 1 µM and an IC50 [3] greater than 1 µM. The IC50 [4] was greater than 1 µM, the IC50 [5] was less than 0.00316 µM and the IC50 [6] was less than 0.00316 µM. For the same compound, the viability, T/C (second compound 0.0316 µM, first compound 0.00316 µM) was 96.7%, the viability, T/C (second compound 0.0316 µM, first compound 0.01 µM) was 116% and the viability, T/C [7] was 107%. The viability, T/C [8] was 139%, the viability, T/C [9] was 147% and the viability, T/C [10] was 137%. It also gave a viability, T/C (second compound 0.1 µM, first compound 0.00316 µM) of 97.4%, a viability, T/C (second compound 0.1 µM, first compound 0.01 µM) of 93% and a viability, T/C [11] of 105%. The viability, T/C [12] was 127%, the viability, T/C [13] was 145% and the viability, T/C [14] was 124%. For the same compound, the viability, T/C (second compound 0.316 µM, first compound 0.00316 µM) was 97.9%, the viability, T/C (second compound 0.316 µM, first compound 0.01 µM) was 114% and the viability, T/C [15] was 104%. For the same compound, the viability, T/C [16] was 103%, the viability, T/C [17] was 116% and the viability, T/C [18] was 92.5%. It also gave a viability, T/C (second compound 1 µM, first compound 0.00316 µM) of 101%, a viability, T/C (second compound 1 µM, first compound 0.01 µM) of 90.2% and a viability, T/C [19] of 77.9%. For the same compound, the viability, T/C [20] was 78.1%, the viability, T/C [21] was 74% and the viability, T/C [22] was 62.8%. It also gave a viability, T/C (second compound 3.16 µM, first compound 0.00316 µM) of 49.8%, a viability, T/C (second compound 3.16 µM, first compound 0.01 µM) of 47.5% and a viability, T/C [23] of 42.1%. It also gave a viability, T/C [24] of 37%, a viability, T/C [25] of 41.4% and a viability, T/C [26] of 28.6%. The viability, T/C (second compound 10 µM, first compound 0.00316 µM) was 15.8%, the viability, T/C (second compound 10 µM, first compound 0.01 µM) was 14.2% and the viability, T/C [27] was 10.7%. It also gave a viability, T/C [28] of 9%, a viability, T/C [29] of 12.5% and a viability, T/C [30] of 12%.
